Reference: patent US7723576B2, “Method of selectively producing male or female sterile plants” (Syngenta Limited, priority 2003, dated 2010)

Legend:
[1] = tested on: conditionally male sterile tobacco plants; experiment: Foliar spray on conditionally male sterile transgenic tobacco (TA29-deacetylase plus plastocyanin-PAT); format: in vivo
Procedure: Tobacco plant material is transformed, via Agrobacterium, with vector and transgenic plants are regenerated in a similar manner to that described in the previous example. The plants produced are self-fertile but are conditionally male sterile. Seeds of the T1 generation are planted out into soil. Once plantlets have grown to a sufficient size they are tested by PCR for the presence of transgene. PCR positive plants are transferred to the greenhouse. These plants are fully fertile in the absence of exogenously applied herbicide. A subset of these putatively conditionally sterile T1 plants, or, alternatively plantlets of T0 ‘events’ (direct regenerants from transformation) are treated with phosphinothricin in various amounts and at varying growth stages. Where To plants are treated they are vegetatively cloned so that untreated siblings of the events are set aside for seed production. […] For example, phosphinothricin is applied as a foliar spray, prior to or during the early stages of flower formation, at rates usually between 0.25 and 20 kg/ha.
Pollen from the treated plants is collected and viability is tested. […] Pollen collected from some of the treated plants is tested and found to be malformed and non-viable. […]

[2] = tested on: conditionally female sterile tobacco plants; experiment: Foliar spray on conditionally female sterile transgenic tobacco (stig1-deacetylase plus plastocyanin-PAT); format: in vivo, Nicotiana tabacum var. Samsun
Procedure: Tobacco leaf discs are transformed with the recombinant binary vectors using methods similar to those described in Horsch et al (1985) Science, 227, 1229-1231. Many variations of the method may be used. The binary vector can be transformed into, for example, Agrobacterium tumefaciens strain LBA 4404 using the freeze thaw method of transformation. Tobacco transformation and whole plant regeneration is performed using Nicotiana tabacum var. Samsun according to protocols described by Draper et al (Plant Genetic Transformation, Blackwell Sci. Pub. 1989). Transformation events are selected on MS-media containing kanamycin or other suitable antibiotic. Alternatively selection is made on phosphinothricin. The presence of integrated transgenes is confirmed by PCR. Plants are regenerated and allowed to reach maturity and selfed on to produce seed. Northern and/or Western analysis is used to confirm tissue-specific expression of the deacetylase. The plants are self-fertile but have the condition of conditional female sterility. Seeds of the T1 generation are planted out. Once plantlets have grown to a sufficient size they are tested by PCR for the presence of transgene. PCR positive plants are transferred to the greenhouse. These plants are fully fertile in the absence of exogenously applied phosphinothricin. A subset of these (putatively) conditionally sterile plants are treated with DL-phosphiothricin or L phosphinothricin in various amounts and at varying growth stages. Such treatments are carried out on the T1 plants confirmed as PCR positive for the deacetylase gene, or, equally, such treatments are carried out directly on plants of the To generation (which are vegetatively cloned so that untreated clones of each event may be set aside for seed production). […] For example, phosphinotricin is applied as a foliar spray, prior to or during the early stages of flower formation, at rates usually between 0.25 and 20 kg/ha. Undamaged appearing plants are selected and pollen from the treated plants is collected and viability is tested. […]

[3] = tested on: transgenic plants comprising a PAT gene under operable control of the plastocyanin promoter region; experiment: Foliar spray on control transgenic tobacco with PAT gene under plastocyanin promoter, no deacetylase gene; format: in vivo, Nicotiana tabacum var. Samsun; conditions: rates in excess of 2 kg/ha; no deacetylase co-expressed
[4] = tested on: wheat plants with PAT gene under plastocyanin promoter region; experiment: Application to wheat plants expressing PAT under a plastocyanin promoter region; format: in vivo; conditions: rates of at least 2 kg/ha
Source text: Firstly, the PAT gene is expressed under operable control of a plastocyanin promoter region so that it is expressed substantially only in the green tissues of the plant. […] Thus a critical feature of the constructs described in the foregoing examples which are used to provide the plants of the current example is that the PAT gene which provides the resistance trait is expressed under operable control of a promoter region which provides for expression in substantially only the green tissues. A characteristic of such a useful promoter region is that it should express PAT in such a way that it protects adequately all the […] floral tissues from foliarly applied DL phosphinothricin whilst, at the same time, providing only a minimal level of PAT expression in the floral tissue itself and especially low in those parts targeted for conditional sterility. With PAT expressed under operable control of the barley plastocyanin promoter region this condition appears to be met since substantially all of the L-phosphinothricin which is sprayed enters via the leaves is intercepted and converted to non-phytotoxic N-acetyl-L-phosphinothricin before it translocated to developing floral tissues. […]

Structure (SMILES)	pollen shed and viability after treatment ([1]; foliar spray prior to or during early flower formation, rates usually between 0.25 and 20 kg/ha)	female fertility of treated male infertile plants ([1]; pollinated with pollen from untreated non-transgenic or conditionally female-sterile tobacco)	seed production after treatment ([2]; foliar spray prior to or during early flower formation, selected lines)	vegetative damage (appearance of treated plants) ([2]; foliar spray prior to or during early flower formation, treatment rates of up to 5 kg/ha)	viable pollen production after treatment ([2]; same treatment conditions as for seed production)	reproductive tolerance to the herbicide [3]	reproductive tolerance to the herbicide [4]
CP(=O)(O)CC[C@H](N)C(=O)O (racemic) [phosphinothricin]	no or relatively little pollen and/or pollen which is not viable	remain female fertile	relatively little or no seed	relatively undamaged	near normal levels of viable pollen		
CP(=O)(O)CCC(N)C(=O)O (stereo not drawn) [DL PPT, DL phosphinothricin]						substantially complete reproductive tolerance	substantially reproductively tolerant
